*1 amine or outer side, *2 acyl side, *3 side chain or, on linkers, in order; H or OH if unused. Where a SMILES comes first, the peptide text is derived from it. Side-chain parts run from the residue outwards. [ ]: non-standard residue; d: D form. The star is where a group is joined. C20 diacid = O=C(O)CCCCCCCCCCCCCCCCCCC(=O)*; γGlu = O=C(O)[C@H](CCC(=O)[*:2])N[*:1]; αMeF = C[C@](N)(Cc1ccccc1)C(=O)O; 4Pal = N[C@@H](Cc1ccncc1)C(=O)O; αMeL = CC(C)C[C@](C)(N)C(=O)O; AEEA = NCCOCCOCC(=O)O; Aib = CC(C)(N)C(=O)O
Columns and labels:
human GIPR = target: T1, human GIPR (Homo sapiens, UniProt P48546); assay: [125I]-GIP binding, SPA with WGA beads, 0.1% bacitracin; conditions: geometric mean, read-out: hGIPR Ki
T1 construct: expressed in transfected cells; crude membranes
T1 sequence (P48546 22-466): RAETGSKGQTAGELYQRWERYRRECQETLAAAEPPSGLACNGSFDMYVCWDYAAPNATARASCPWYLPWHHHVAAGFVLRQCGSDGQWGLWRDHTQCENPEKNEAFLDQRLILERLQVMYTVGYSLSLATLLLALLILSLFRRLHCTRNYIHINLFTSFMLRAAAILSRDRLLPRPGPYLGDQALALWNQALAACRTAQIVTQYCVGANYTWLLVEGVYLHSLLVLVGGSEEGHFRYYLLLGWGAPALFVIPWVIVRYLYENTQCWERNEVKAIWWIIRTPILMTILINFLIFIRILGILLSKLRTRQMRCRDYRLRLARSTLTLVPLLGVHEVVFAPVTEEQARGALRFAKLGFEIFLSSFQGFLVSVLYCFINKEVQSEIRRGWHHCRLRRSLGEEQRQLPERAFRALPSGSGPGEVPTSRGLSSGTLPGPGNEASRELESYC
Summary of the method: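 Ki values are geometric means (SEM, n independent days), derived from four-parameter nonlinear regression of IC50. Membranes came from hGIPR-expressing CHO cells.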

human GLP-1R = target: T2, human GLP-1R (Homo sapiens, UniProt P43220); assay: [125I]-GLP-1 binding, SPA with WGA beads, 0.1% bacitracin; conditions: geometric mean, read-out: hGLP1R Ki
T2 construct: expressed in transfected cells; crude membranes
T2 sequence (P43220 24-463): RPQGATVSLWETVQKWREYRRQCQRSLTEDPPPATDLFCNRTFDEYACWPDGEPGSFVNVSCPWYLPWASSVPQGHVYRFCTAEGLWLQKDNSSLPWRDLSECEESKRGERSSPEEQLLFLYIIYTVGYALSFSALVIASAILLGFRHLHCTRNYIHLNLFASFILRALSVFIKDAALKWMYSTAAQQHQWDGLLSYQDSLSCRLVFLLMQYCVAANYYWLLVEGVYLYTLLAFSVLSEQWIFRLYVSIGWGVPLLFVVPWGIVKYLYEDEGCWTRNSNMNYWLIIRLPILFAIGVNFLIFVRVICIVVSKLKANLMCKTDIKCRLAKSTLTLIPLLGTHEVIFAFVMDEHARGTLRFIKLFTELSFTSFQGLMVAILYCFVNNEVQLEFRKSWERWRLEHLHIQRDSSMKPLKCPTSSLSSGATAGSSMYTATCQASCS
Summary of the method: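 Binding buffer was 25 mM HEPES pH 7.4 with 2.5 mM CaCl2, 1 mM MgCl2, 0.1% (w/v) bacitracin, 0.003% Tween-20 and EDTA-free protease inhibitors. Four-parameter regression gave IC50, converted to Ki (geometric mean, SEM, n independent days).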

Compound	Ki (human GIPR)	Ki (human GLP-1R)
CC[C@H](C)[C@H](NC(=O)[C@H](Cc1ccccc1)NC(=O)[C@@H](NC(=O)CNC(=O)[C@H](CCC(=O)O)NC(=O)C(C)(C)NC(=O)[C@@H](N)Cc1ccc(O)cc1)[C@@H](C)O)C(=O)N[C@@H](CO)C(=O)N[C@@H](CC(=O)O)C(=O)N[C@@H](Cc1ccc(O)cc1)C(=O)N[C@@H](CO)C(=O)N[C@H](C(=O)N[C@@](C)(CC(C)C)C(=O)N[C@@H](CC(C)C)C(=O)N[C@@H](CC(=O)O)C(=O)N[C@@H](CCCCN)C(=O)N[C@@H](CCCCNC(=O)COCCOCCNC(=O)COCCOCCNC(=O)CC[C@H](NC(=O)CCCCCCCCCCCCCCCCCCC(=O)O)C(=O)O)C(=O)N[C@@H](Cc1c[nH]cn1)C(=O)N[C@@H](CCC(N)=O)C(=O)NC(C)(C)C(=O)N[C@@H](CC(=O)O)C(=O)N[C@@H](Cc1ccccc1)C(=O)N[C@H](C(=O)N[C@@H](CCC(=O)O)C(=O)N[C@@H](Cc1ccncc1)C(=O)N[C@@H](CC(C)C)C(=O)N[C@@H](CC(C)C)C(=O)N[C@@H](CCC(=O)O)C(=O)N[C@@H](CCC(N)=O)C(=O)NCC(=O)N1CCC[C@H]1C(=O)N[C@@H](CO)C(=O)N[C@@H](CO)C(=O)NCC(=O)N[C@@H](C)C(=O)N1CCC[C@H]1C(=O)N1CCC[C@H]1C(=O)N1CCC[C@H]1C(=O)N[C@@H](CO)C(N)=O)C(C)C)[C@@H](C)CC [Example 46] (H-Y[Aib]EGTFISDYSI[αMeL]LDKK([AEEA-AEEA-γGlu-C20 diacid])HQ[Aib]DFVE[4Pal]LLEQGPSSGAPPPS-NH2)	0.0319 nM	744 nM
CC[C@H](C)[C@H](NC(=O)[C@H](CO)NC(=O)[C@H](Cc1ccc(O)cc1)NC(=O)[C@H](CC(=O)O)NC(=O)[C@H](CO)NC(=O)[C@@H](NC(=O)[C@](C)(Cc1ccccc1)NC(=O)[C@@H](NC(=O)CNC(=O)[C@H](CCC(=O)O)NC(=O)C(C)(C)NC(=O)[C@@H](N)Cc1ccc(O)cc1)[C@@H](C)O)[C@@H](C)CC)C(=O)N[C@@](C)(CC(C)C)C(=O)N[C@@H](CC(C)C)C(=O)N[C@@H](CC(=O)O)C(=O)N[C@@H](CCCCN)C(=O)N[C@@H](CCCCNC(=O)COCCOCCNC(=O)COCCOCCNC(=O)CC[C@H](NC(=O)CCCCCCCCCCCCCCCCCCC(=O)O)C(=O)O)C(=O)N[C@@H](Cc1c[nH]cn1)C(=O)N[C@@H](CCC(N)=O)C(=O)NC(C)(C)C(=O)N[C@@H](CCC(=O)O)C(=O)N[C@@H](Cc1ccccc1)C(=O)N[C@H](C(=O)N[C@@H](CCC(=O)O)C(=O)N[C@@H](Cc1ccncc1)C(=O)N[C@@H](CC(C)C)C(=O)N[C@@H](CC(C)C)C(=O)N[C@@H](C)C(=O)N[C@H](C(=O)NCC(=O)N1CCC[C@H]1C(=O)N[C@@H](CO)C(=O)N[C@@H](CO)C(=O)NCC(=O)N[C@@H](C)C(=O)N1CCC[C@H]1C(=O)N1CCC[C@H]1C(=O)N1CCC[C@H]1C(=O)N[C@@H](CO)C(N)=O)[C@@H](C)O)C(C)C [Example 61] (H-Y[Aib]EGT[αMeF]ISDYSI[αMeL]LDKK([AEEA-AEEA-γGlu-C20 diacid])HQ[Aib]EFVE[4Pal]LLATGPSSGAPPPS-NH2)	0.0665 nM	135 nM

Source: patent publication US12723063B2, “GIPR-agonist compounds” (Eli Lilly and Company, priority 2019, dated 2026)
